Experiments:
apoE KO mice [1] = test: Atherosclerosis prevention trial in apoE KO mice; format: in vivo, mouse
Experimental: (§1) The mutant male mice, apoE KO (B6.129P2-Apoe^tm1Unc/J) and LDLr KO (B6.129S7-Ldlr^tm1Her/J) at the age of 7 weeks, were purchased from Charles River Laboratories, and acclimated to the facility for 7 days. The mice were housed at 25 °C with a 12:12 h light–dark cycle, and food and water were provided ad libitum. The HF/HC diet D12108 containing 1.25% cholesterol and 20% fat was purchased from Research Diets. A selective small molecule FAK inhibitor Compound 12 (Additional file 1: Figure S1; a 2-phenylamino-pyrimidin-4-ylamino-2,3-dihydro-isoindol-1-one derivative) was administrated as food admixture at a concentration of 0.03%. Compound 12 has an IC50 of 6 nM on FAK and no activity on insulin receptor kinase, insulin-like growth factor 1 receptor kinase, cyclin-dependent kinase 1 and Src (Additional file 2: Table S1) as described by Kawahara et al.).
(§2) To assess the therapeutic effect of FAK inhibition, the following three different designs were applied: prevention (1) and therapeutic intervention (2) in apoE KO mice, and therapeutic intervention (3) in LDLr KO mice. The prevention trial consisted of 8-week concurrent treatment with the HF/HC diet following 1 week of pre-loading of the HF/HC diet (Additional file 3: Figure S2A). The therapeutic intervention trial consisted of 6- and 8-week treatment after 6- and 8-week pre-loading of the HF/HC diet in apoE KO and LDLr KO mice, respectively (Additional file 3: Figure S2B). Body weight and food intake were measured once weekly. The mice were euthanized under terminal inhalation anesthesia with isoflurane followed by blood collection from abdominal vein.
(§3) Atherosclerotic lesion area was evaluated in the aorta by en face analysis (Additional file 4: Figure S3A) and in aortic root by cross-sectional analysis (Additional file 4: Figure S3B). The aorta was subjected to Sudan IV staining, and total area of the plaque lesion (TAOL) and area of whole aorta from arch without the region of brachiocephalic artery to common iliac artery (AOWA) were measured using the Definiens imaging software. Area of lesion (%) was calculated by the following formula; Area of lesion (%) = TAOL/AOWA × 100. After en face analysis, the aorta was washed and then blotted dry, weighed, minced, and total lipid was extracted with chloroform/methanol. Total and free cholesterol levels in the aortic extracts were determined with an enzymatic colorimetric assay (Wako Pure Chemical Industries Ltd.). Cross sections were cut at 5 μm thickness and 6 serial sections were collected every 50 μm along the aortic root. Lesion area analysis was made on the cross sections subjected to hematoxylin and eosin (HE) staining. Three representative sections derived from 3 segments were quantified per mouse. Lesion area values from the 3 sections were summed up. Histological features using serial cross sections were subjected to staining for EvG and anti Mac-3 antigen. Clinical biochemistry markers in serum was evaluated using DRICHEM 7000 (FUJIFILM Medical, Japan). Statistical comparison of control and compound 12-treated groups was carried out with a Mann–Whitney test (two-tailed) using GraphPad Prism.

apoE KO mice [2] = test: Atherosclerosis therapeutic intervention trial in apoE KO mice; format: in vivo, mouse
Experimental: as §1, §2, §3

LDLr KO mice = test: Atherosclerosis therapeutic intervention trial in LDLr KO mice; format: in vivo, mouse; details: 0.03% food admixture
Experimental: as §1, §2, §3

[3] = Clinical biochemistry markers in serum, prevention trial apoE KO mice; format: in vivo, mouse; details: Prevention (8 weeks), mean ± SEM
Description: as §2, §3
(§4) Data are mean ± SEM. *; P < 0.05, **; P < 0.01 ***; P < 0.001 as compared with the control.

[4] = Clinical biochemistry markers in serum, intervention trial apoE KO mice; format: in vivo, mouse; details: Intervention (6 + 6 weeks), mean ± SEM
Description: as §2, §3, §4

[5] = Clinical biochemistry markers in serum, intervention trial LDLr KO mice; format: in vivo, mouse; details: Intervention (8 + 8 weeks), mean ± SEM
Description: as §2, §3, §4

FAK = details: cited from earlier work
[6] = system: IRK (insulin receptor kinase); details: cited from earlier work
[7] = system: IGF-1R (insulin-like growth factor 1 receptor kinase); details: cited from earlier work
[8] = system: CDK1 (cyclin-dependent kinase 1); details: cited from earlier work
c-Src = details: cited from earlier work
[9] = therapeutic intervention, 0.03% food admixture
[10] = means, radiolabeled ATP, DELFIA or TR-FRET method

SMILES: COc1ccc(Nc2ncc(Cl)c(Nc3ccc(N4CCC(N5CCN(C)CC5)CC4)c4c3C(=O)N(C)C4)n2)c(OC)c1 [Compound 12, 7-[5-Chloro-2-(2,4-dimethoxy-phenylamino)-pyrimidin-4-ylamino]-2-methyl-4-[4-(4-methyl-piperazin-1-yl)-piperidin-1-yl]-2,3-dihydro-isoindol-1-one]
- body weight change (apoE KO mice [1]; 0.03% food admixture): no remarkable changes
- food intake (apoE KO mice [1]; 0.03% food admixture): no remarkable changes
- tolerability (apoE KO mice [1]; 0.03% food admixture): generally well tolerated
- histological features of atherosclerotic plaques (HE, EvG, anti Mac-3) (apoE KO mice [1]; 8 weeks, 0.03% food admixture): foam cell rich, reduced fibrous and lipid core regions
- reduction of lesion area of the aorta (en face analysis) vs control (apoE KO mice [1]; 8 weeks, 0.03% food admixture with HF/HC diet): 41.2%
- cholesterol content in aorta (apoE KO mice [1]; 8 weeks, 0.03% food admixture, P < 0.01 vs control): significantly reduced
- lesion area of aortic root (cross-sectional analysis) (apoE KO mice [1]; 8 weeks, 0.03% food admixture, P < 0.05 vs control): significantly reduced
- lesion area of the aorta (en face analysis, TAOL/AOWA x 100) (apoE KO mice [1]; 8 weeks, 0.03% food admixture, control 8.92%): 5.24%
- lesion area of aortic root (cross-sectional analysis) (apoE KO mice [2]; intervention 6 + 6 weeks, 0.03% food admixture): appeared to be reduced
- cholesterol content in aorta (apoE KO mice [2]; intervention 6 + 6 weeks, 0.03% food admixture, P < 0.05 vs control): significantly reduced
- lesion area of the aorta (en face analysis) (apoE KO mice [2]; intervention 6 + 6 weeks, 0.03% food admixture, normalized to Control at 6 weeks, control at 12 weeks 8.03%): 4.75%
- change of lesion area (mm^2) of aortic root vs control (apoE KO mice [2]; intervention 6 + 6 weeks, 0.03% food admixture, printed in Fig. 2e): -15%
- reduction of lesion area of the aorta (en face analysis) vs control (apoE KO mice [2]; intervention, 6 + 6 weeks, 0.03% food admixture with HF/HC diet): 40.9%
- body weight change (apoE KO mice [2]; [9]): no remarkable changes
- food intake (apoE KO mice [2]; [9]): no remarkable changes
- tolerability (apoE KO mice [2]; [9]): generally well tolerated
- cholesterol content in aorta (LDLr KO mice; intervention 8 + 8 weeks, P < 0.01 vs control): significantly reduced
- lesion area of the aorta (en face analysis) (LDLr KO mice; intervention 8 + 8 weeks, normalized to Control at 8 weeks, control at 16 weeks 8.51%): 5.83%
- body weight change (LDLr KO mice; therapeutic intervention): no remarkable changes
- food intake (LDLr KO mice; therapeutic intervention): no remarkable changes
- tolerability (LDLr KO mice; therapeutic intervention): generally well tolerated
- ALB [3]: 2.2 ± 0.07^* g/dL
- ALP [3]: 554 ± 31^** U/L
- ALT [3]: 25 ± 1.6 U/L
- AST [3]: 115 ± 15 U/L
- BUN [3]: 41 ± 2.5 mg/dL
- CPK [3]: 700 ± 362 U/L
- CRE [3]: 0.3 ± 0.02^*** mg/dL
- Glc [3]: 167 ± 16 mg/dL
- Insulin [3]: 751 ± 109 pg/mL
- LDH [3]: 535 ± 47^** U/L
- T-BIL [3]: 0.5 ± 0.03 mg/dL
- T-Chol [3]: 1,221 ± 102^* mg/dL
- TG [3]: 94 ± 8.4^* mg/dL
- ALB [4]: 2.3 ± 0.04 g/dL
- ALP [4]: 469 ± 37^*** U/L
- ALT [4]: 26 ± 1.3 U/L
- AST [4]: 108 ± 7.0 U/L
- BUN [4]: 42 ± 2.5 mg/dL
- CPK [4]: 227 ± 48 U/L
- CRE [4]: 0.3 ± 0.02^*** mg/dL
- LDH [4]: 590 ± 36^* U/L
- T-BIL [4]: 0.5 ± 0.05 mg/dL
- T-Chol [4]: 1,016 ± 53^* mg/dL
- TG [4]: 93 ± 6.7^** mg/dL
- ALB [5]: 2.2 ± 0.05 g/dL
- ALP [5]: 406 ± 34^** U/L
- ALT [5]: 24 ± 1.6^** U/L
- AST [5]: 97 ± 8.0 U/L
- BUN [5]: 32 ± 1.2 mg/dL
- CPK [5]: 196 ± 76^** U/L
- CRE [5]: 0.3 ± 0.02^*** mg/dL
- LDH [5]: 295 ± 38 U/L
- T-BIL [5]: 0.6 ± 0.05 mg/dL
- T-Chol [5]: 714 ± 51^*** mg/dL
- TG [5]: 273 ± 21 mg/dL
- IC50 (FAK): 0.006 µM
- activity on insulin receptor kinase [6]: no activity
- IC50 [6, 10]: > 3.3 µM
- activity on insulin-like growth factor 1 receptor kinase [7]: no activity
- IC50 [7, 10]: > 10 µM
- activity on cyclin-dependent kinase 1 [8]: no activity
- IC50 [8, 10]: > 10 µM
- activity on Src (c-Src): no activity
- IC50 (c-Src; [10]): > 10 µM
